Results taken from doi:10.1101/2024.03.05.583521v1 (biorxiv, 2024).
One block for each molecule: values may come before it.

Legend:
[1] = molecular target: T1, PIB-1 (Pseudomonas aeruginosa, UniProt Q9HT32); assay: isothermal titration calorimetry; format: binding
T1 sequence (Q9HT32 28-414): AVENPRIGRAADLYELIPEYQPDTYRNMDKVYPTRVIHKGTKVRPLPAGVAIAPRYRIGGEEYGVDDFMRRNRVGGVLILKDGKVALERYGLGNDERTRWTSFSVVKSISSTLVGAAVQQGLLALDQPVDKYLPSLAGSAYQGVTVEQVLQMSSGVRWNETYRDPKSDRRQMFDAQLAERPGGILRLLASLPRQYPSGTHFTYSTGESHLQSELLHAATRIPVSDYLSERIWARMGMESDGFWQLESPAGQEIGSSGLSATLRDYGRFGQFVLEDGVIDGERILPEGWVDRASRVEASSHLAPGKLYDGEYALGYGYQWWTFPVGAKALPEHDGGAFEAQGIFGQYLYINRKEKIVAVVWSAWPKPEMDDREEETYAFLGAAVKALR

[2] = molecular target: T1, PIB-1; assay: intrinsic protein fluorescence quenching; format: binding
[3] = substrate: O=C(Cc1cccs1)N[C@@H]1C(=O)N2C(C(=O)O)=C(/C=C/c3ccc([N+](=O)[O-])cc3[N+](=O)[O-])CS[C@H]12; assay: purified protein; settings: no added metal, 10 mM Na-HEPES pH 7.5, 100 mM NaCl, 37 °C

Kd [1]: 79.8 ± 5.9 µM
Molecule: C[C@@H](O)[C@H]1C(=O)N2C(C(=O)O)=C(SCCN=CN)C[C@H]12 [imipenem]

Kd [2]: 74.8 ± 10.3 µM
Molecule: C[C@@H](O)[C@H]1C(=O)N2C(C(=O)O)=C(S[C@@H]3CN[C@H](C(=O)N(C)C)C3)[C@H](C)[C@H]12 [meropenem]

B1: PIB-1 (Pseudomonas aeruginosa PAO1) (protein)
chain: AVENPRIGRAADLYELIPEYQPDTYRNMDKVYPTRVIHKGTKVRPLPAGVAIAPRYRIGGEEYGVDDFMRRNRVGGVLILKDGKVALERYGLGNDERTRWTSFSVVKSISSTLVGAAVQQGLLALDQPVDKYLPSLAGSAYQGVTVEQVLQMSSGVRWNETYRDPKSDRRQMFDAQLAERPGGILRLLASLPRQYPSGTHFTYSTGESHLQSELLHAATRIPVSDYLSERIWARMGMESDGFWQLESPAGQEIGSSGLSATLRDYGRFGQFVLEDGVIDGERILPEGWVDRASRVEASSHLAPGKLYDGEYALGYGYQWWTFPVGAKALPEHDGGAFEAQGIFGQYLYINRKEKIVAVVWSAWPKPEMDDREEETYAFLGAAVKALR
Km [3]: 95.3 ± 8.9 µM | kcat [3]: 0.0041 ± 0.0005 s⁻¹
